From patent US20260137701A1, “CHOLESTENOIC ACID (CA) AND A SULFATED DERIVATIVE THEREOF, 3[BETA]-SULFATE-5-CHOLESTENOIC ACID (CA3S), AS ENDOGENOUS EPIGENETIC REGULATORS” (priority 2022, published 2026)

Columns and labels:
[1] = test system: HepG-2 cells; assay: Untargeted lipidomics analysis; format: cell-based, human
Protocol: HepG-2 cells were cultured in DMEM medium with HG for 72 hours followed by treating with 20 μM CA for 24, 48, and 72 hours. The cells were harvested with 500 μl 1× PBS, and sent to Creative Proteomics Co., Ltd (New York, USA) for untargeted lipidomics analysis. Samples were thawed and 1.5 mL chloroform:methanol (2:1, v/v) added to sample, vortexed for 1 min, and followed by sonication for 30 min, 4° C. Then centrifuge 10 min at 12,000 rpm, 4° C., transfer the lower phase to a new tube, dry under the nitrogen. The dried extract with 200 μl of isopropyl alcohol:methanol (1:1, v/v); add 5 μl LPC (12:0) for internal standard. Finally, centrifuge 10 min at 12,000 rpm, 4° C.; transfer the supernatant for LC-MS analysis. Separation is performed by UltiMate™ 3000 LC combined with Q Exactive™ MS (Thermo) and screened with ESI-MS. The LC system is comprised of ACQUITY UPLC® BEH C18 (100×2.1 mm×1.7 μm) with UltiMate™ 3000 LC. The mobile phase is composed of solvent A (60% ACN+40% H2O+10 mM HCOONH4) and solvent B (10% ACN+90% isopropyl alcohol+10 mM HCOONH4) with a gradient elution (0-10.5 min, 30%-100% B; 10.5 min-12.5 min, 100% B; 12.5-12.51 min, 100%-30% B; 12.51-16.0 min, 30% B). The flow rate of the mobile phase is 0.3-1 mL·min. The column temperature is maintained at 40° C., and the sample manager temperature is set at 4° C. Mass spectrometry parameters in ESI+ and ESI− mode are listed as follows: ESI+: Heater Temp 300° C.; Sheath Gas Flow rate, 45 arb; Aux Gas Flow Rate, 15 arb; Sweep Gas Flow Rate, larb; spray voltage, 3.0 KV; Capillary Temp, 350° C.; S-Lens RF Level, 30%. ESI−: Heater Temp 300° C., Sheath Gas Flow rate, 45 arb; Aux Gas Flow Rate, 15 arb; Sweep Gas Flow Rate, larb; spray voltage, 3.2 KV; Capillary Temp, 350° C.; S-Lens RF Level, 60%.

[2] = molecular target: recombinant DNMT3b (Homo sapiens, UniProt Q9UBC3); assay: DNMT3b enzyme kinetic (activity) assay, 3H-SAM filter; format: biochemical; conditions: read-out: IC50, inhibits DNMT3b activity
Protocol: (§1) The enzyme kinetic studies were carried out by Reaction Biology Company. For the DNMT1 activity assay, the substrate solution, 0.001 mg/ml Poly(dI-dC): Poly(dI-dC) in 50 mM Tris-HCl, pH 7.5, 50 mM NaCl, 5 mM EDTA, 5 mM DTT, 1 mM PMSF, 5% glycerol, 0.01% Brij™35, 1% DMSO was used. For the DNMT3a/3b activity assay, 0.0075 mg/ml Lambda DNA in 50 mM Tris-HCl, pH 7.5, 50 mM NaCl, 5 mM EDTA, 5 mM DTT, 1 mM PMSF, 5% glycerol, 1% DMSO, was used. The indicated DNMT1, DNMT3a and DNMT3b were added to the appropriate substrate solution and gently mixed. Amounts of CA ranging from 5.08E-09 to 0.0001 M in DMSO were added to the reaction mixture by using Acoustic Technology (Echo® 550, LabCyte Inc. Sunnyvale, CA). The mixtures were first incubated for 15 min, then ^3H-SAM was added to the reaction mixture to initiate the reaction, and the mixture was incubated for 60 min at 30° C. Following incubation, the reaction mixture was finally transferred to filter-paper for detection of radioactivity counts.

[3] = molecular target: recombinant DNMT1 (Homo sapiens, UniProt P26358); assay: DNMT1 enzyme kinetic (activity) assay, 3H-SAM filter; format: biochemical
Protocol: as §1

Sequence of recombinant DNMT1 (P26358 whole entry): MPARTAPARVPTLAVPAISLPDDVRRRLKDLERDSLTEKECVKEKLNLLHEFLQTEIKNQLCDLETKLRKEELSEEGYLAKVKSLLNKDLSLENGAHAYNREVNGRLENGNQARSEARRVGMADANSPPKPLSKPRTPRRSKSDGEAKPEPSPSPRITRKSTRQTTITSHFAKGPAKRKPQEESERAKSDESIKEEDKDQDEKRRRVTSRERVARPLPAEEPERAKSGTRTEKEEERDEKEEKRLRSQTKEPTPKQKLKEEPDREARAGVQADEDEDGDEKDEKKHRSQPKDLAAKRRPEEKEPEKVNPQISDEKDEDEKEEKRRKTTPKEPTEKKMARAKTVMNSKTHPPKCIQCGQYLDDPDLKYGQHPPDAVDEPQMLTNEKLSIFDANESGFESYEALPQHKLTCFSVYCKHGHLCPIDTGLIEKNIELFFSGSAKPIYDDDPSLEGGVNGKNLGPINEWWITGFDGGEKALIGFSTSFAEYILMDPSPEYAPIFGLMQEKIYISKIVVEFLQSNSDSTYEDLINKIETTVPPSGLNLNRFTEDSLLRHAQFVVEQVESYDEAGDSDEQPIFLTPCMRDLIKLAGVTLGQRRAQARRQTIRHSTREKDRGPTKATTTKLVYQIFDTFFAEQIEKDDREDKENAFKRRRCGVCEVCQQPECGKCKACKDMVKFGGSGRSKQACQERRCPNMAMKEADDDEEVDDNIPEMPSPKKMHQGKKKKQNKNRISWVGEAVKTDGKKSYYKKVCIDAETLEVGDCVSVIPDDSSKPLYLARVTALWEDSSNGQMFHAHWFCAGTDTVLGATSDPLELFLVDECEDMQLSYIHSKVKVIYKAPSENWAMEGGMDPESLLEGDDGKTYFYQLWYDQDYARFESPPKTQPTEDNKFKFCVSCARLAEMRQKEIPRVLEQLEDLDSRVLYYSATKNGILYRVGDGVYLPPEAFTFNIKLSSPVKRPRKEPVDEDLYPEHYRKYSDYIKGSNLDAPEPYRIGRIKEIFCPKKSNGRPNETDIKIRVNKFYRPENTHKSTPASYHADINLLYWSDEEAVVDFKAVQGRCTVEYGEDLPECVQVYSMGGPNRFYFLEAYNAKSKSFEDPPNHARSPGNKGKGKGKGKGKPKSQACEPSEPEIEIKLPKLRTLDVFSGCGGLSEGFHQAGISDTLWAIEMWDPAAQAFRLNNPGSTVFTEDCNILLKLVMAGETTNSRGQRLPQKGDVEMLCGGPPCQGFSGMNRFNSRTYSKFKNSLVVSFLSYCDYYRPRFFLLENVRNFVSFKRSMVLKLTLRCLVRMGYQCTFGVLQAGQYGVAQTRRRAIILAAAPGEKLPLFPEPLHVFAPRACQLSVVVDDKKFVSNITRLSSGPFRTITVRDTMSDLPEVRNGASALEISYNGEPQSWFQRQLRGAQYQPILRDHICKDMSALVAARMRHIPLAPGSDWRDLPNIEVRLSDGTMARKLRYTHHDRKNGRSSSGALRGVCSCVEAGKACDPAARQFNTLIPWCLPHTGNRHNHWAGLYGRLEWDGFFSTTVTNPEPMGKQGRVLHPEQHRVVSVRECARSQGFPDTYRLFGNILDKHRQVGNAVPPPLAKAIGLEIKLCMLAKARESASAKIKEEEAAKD

Structure (SMILES): CC(CCC[C@@H](C)[C@H]1CC[C@H]2[C@@H]3CC=C4C[C@@H](O)CC[C@]4(C)[C@H]3CC[C@]12C)C(=O)O (stereo partly drawn) [CA, 3β-hydroxy-5-cholestenoic acid]
- average decreased percentage of ChE (cholesterol ester) ([1]; 20 μM CA, 48 hours): 47%
- average decreased percentage of DG (Diglycerides) ([1]; 20 μM CA, 48 hours): 76%
- average decreased percentage of FA ([1]; 20 μM CA, 48 hours): 65%
- average decreased percentage of MG (Monoglycerides) ([1]; 20 μM CA, 48 hours): 53%
- average decreased percentage of TG (Triglycerides) ([1]; 20 μM CA, 48 hours): 70%
- lipid levels (GP, SP, GL, ST, FA) ([1]; HG medium 72 hours, then 20 μM CA): significantly decreased
- IC50 [2]: 4.89 µM
- IC50 ([3]; at higher concentration, read-out: IC50, inhibits DNMT1 activity): 9.13 µM
- EC50 ([3]; at low concentration, mean±SD, n=3, read-out: EC50, activates DNMT1): 1990 nM
